US12091718B2, “Genetically encoded biosensors for detection of polyketides” (priority 2016, dated 2024)

Legend:
[1] = target: wild-type MphR (MphR(A), macrolide biosensor transcription factor), SEQ ID NO: 2 (gene SEQ ID NO: 1, 28) (Escherichia coli, UniProt Q9EVJ6); assay: cell-based; conditions: for activation of GFP expression under control of WT MphR: result in words
Excerpt: (§1) The sensitivity of biosensors often requires tailoring to meet specific needs. […] A library of MphR gene mutations and variants was created by error-prone PCR (epPCR).
Molecular Biosystems. […] Previous literature reports various induction ranges for MphR-based biosensors depending on the plasmid construct.
Three and five site saturation mutagenesis libraries of the MphR gene that targeted residues of the ligand binding domain were generated using the Quikchange Multi Site-Directed mutagenesis kit (Agilent) and designated QCMS3 and QCMS5, respectively. A third library was generated via error-prone PCR (epPCR) with an average of two amino acid mutations per library clone. Libraries were transformed into E. coli TOP10 cells with plasmid pJZ12 (See FIG. 16 and sequence below) containing genes MphA and mrx and subjected to an initial round of negative sorting in the absence of added ligand via Fluorescence Activated Cell Sorting (FACS) to eliminate variants that are constitutively expressing GFP.
In Table 1, Hill functions were used to derive biosensor transfer functions. K1/2 is the inducer concentration at half maximal induction. Cooperativity is derived from the Hill function to indicate cooperative ligand binding between protein monomers of the MphR dimer. […] The linear range of detection is the linear portion of the dose-response curve with a slope R^2=0.95 or higher.

[2] = target: MphR variant S106F (pikB1, D3; SEQ ID NO: 10, 38) (Escherichia coli, UniProt Q9EVJ6, S106F); assay: cell-based; type: cell-based; conditions: for times more sensitive vs. WT: Table 11
Excerpt: as §1
To test this, the aglycone 6-deoxyerythronolide B (6dEB) was produced via an engineered E. coli strain and purified by flash chromatography. […] To extend this to other systems, the ability of MphR was examined to detect macrolide antibiotics from S. venezuelae.
The ability of the MphR clone “PikB1” to detect a Solithromycin biosynthetic intermediate (see structure below) was determined.

[3] = target: T1, MphR variant A16T/T154M/M155K (M2D6; SEQ ID NO: 16, 44) (Escherichia coli, UniProt Q9EVJ6, A16T/M155K/T154M); assay: MphR-GFP biosensor dose-response, M2D6; type: cell-based; conditions: result in words
T1 construct: GFP under PmphR as reporter
Excerpt: In many cases, it is necessary to determine the presence and concentration of a given polyketide in the presence of other structurally related molecules. Accordingly, the selectivity of MphR requires tailoring towards target molecules.

[4] = target: T2, MphR variant A16T/T154M/M155K with E7 RBS mutation (M2D6-E7RBS) (Escherichia coli, UniProt Q9EVJ6, A16T/M155K/T154M); assay: MphR-GFP biosensor dose-response, M2D6-E7RBS; type: cell-based
T2 construct: E. coli GFP biosensor

MphR variant R122T = MphR variant R122T (Escherichia coli, UniProt Q9EVJ6, R122T); assay: MphR-GFP biosensor dose-response, R122T; type: cell-based; conditions: for Hill coefficient: Table 8
[5] = target: T3, MphR variant T27G/Q65M (QCMS5B4; SEQ ID NO: 8, 36) (Escherichia coli, UniProt Q9EVJ6, Q65M/T17G); assay: MphR-GFP biosensor dose-response, clone T27G/Q65M; type: cell-based
T3 construct: E. coli TOP10 cells with plasmid pJZ12
Excerpt: (§2) In Table 1, Hill functions were used to derive biosensor transfer functions. K1/2 is the inducer concentration at half maximal induction. Cooperativity is derived from the Hill function to indicate cooperative ligand binding between protein monomers of the MphR dimer. Dynamic range is the GFP maximal response minus the minimum GFP response, which in all cases was the response with no ligand. The linear range of detection is the linear portion of the dose-response curve with a slope R^2=0.95 or higher.

[6] = target: T4, MphR variant T27A/M59E (QCMS5D7; SEQ ID NO: 9, 37) (Escherichia coli, UniProt Q9EVJ6, M59E/T17A); assay: MphR-GFP biosensor dose-response, clone T27A/M59E; type: cell-based; conditions: Table 1
T4 construct: E. coli TOP10 GFP biosensor
Excerpt: as §2

[7] = system: MphR variant T27A/M59E (QCMS5D7; SEQ ID NO: 9, 37); assay: MphR-GFP biosensor dose-response, clone T27A/M59E; type: cell-based, Escherichia coli; conditions: Table 11
Excerpt: as §2

[8] = system: MphR variant G76C (clone A3/epA3; nt A1G in RBS, aa G76C; SEQ ID NO: 3, 29); assay: MphR-GFP biosensor dose-response, clone G76C (A3); type: cell-based, Escherichia coli; conditions: Table 11
Excerpt: (§3) K1/2 is the inducer concentration at half maximal induction. Cooperativity is derived from the Hill function to indicate cooperative ligand binding between protein monomers of the MphR dimer. Dynamic range is the GFP maximal response minus the minimum GFP response, which in all cases was the response with no ligand. The linear range of detection is the linear portion of the dose-response curve with a slope R^2=0.95 or higher.

[9] = target: T5, MphR variant G76C (clone A3/epA3; nt A1G in RBS, aa G76C; SEQ ID NO: 3, 29) (Escherichia coli, UniProt Q9EVJ6, G76C); assay: MphR-GFP biosensor dose-response, clone G76C (A3); type: cell-based; conditions: Table 1
T5 construct: pMLGFP-derived plasmid, E. coli TOP10 GFP biosensor
Excerpt: as §3

[10] = target: T6, wild-type MphR with mutated RBS CTGAGGT (smRBS1G6) (Escherichia coli, UniProt Q9EVJ6); assay: MphR-GFP biosensor dose-response, smRBS1G6; type: cell-based; conditions: Table 4
T6 construct: GFP reporter in E. coli
Excerpt: as §1

[11] = target: T7, MphR variant T17R (QCMS3D6; SEQ ID NO: 6, 34) (Escherichia coli, UniProt Q9EVJ6, T17R); assay: MphR-GFP biosensor dose-response, clone T17R; type: cell-based
T7 construct: E. coli TOP10 GFP biosensor
Excerpt: as §2

[12] = target: T8, wild-type MphR with RBS mutations A1T/G2T/A3C (smRBS1A1, RBS TTCAGGT; SEQ ID NO: 53) (Escherichia coli, UniProt Q9EVJ6); assay: MphR-GFP biosensor dose-response, smRBS1A1; type: cell-based
T8 construct: GFP reporter in E. coli
Excerpt: as §1

[13] = system: MphR variant V90I (clone E7/epE7; nt A4T in RBS, aa V90I; SEQ ID NO: 4, 30); assay: MphR-GFP biosensor dose-response, clone V90I (E7); type: cell-based, Escherichia coli; conditions: Table 11
Excerpt: as §3

[14] = target: T9, MphR variant V90I (clone E7/epE7; nt A4T in RBS, aa V90I; SEQ ID NO: 4, 30) (Escherichia coli, UniProt Q9EVJ6, V90I); assay: MphR-GFP biosensor dose-response, clone V90I (E7); type: cell-based; conditions: Table 1
T9 construct: E. coli TOP10 with pJZ12
Excerpt: as §3

[15] = target: T10, wild-type MphR with mutated RBS AAAGGTT (smRBS2E1; SEQ ID NO: 55) (Escherichia coli, UniProt Q9EVJ6); assay: MphR-GFP biosensor dose-response, smRBS2E1; type: cell-based; conditions: Table 4
T10 construct: GFP reporter in E. coli
Excerpt: as §1

[16] = target: T11, wild-type MphR with E7 ribosome binding site mutation only (WT E7-RBS; SEQ ID NO: 32) (Escherichia coli, UniProt Q9EVJ6); assay: cell-based
T11 construct: GFP reporter in E. coli
Excerpt: as §1
To confirm this, new versions of A3 and E7 were constructed that either only included the RBS mutations or the amino acids for each clone.

For `CC[C@H]1OC(=O)[C@H](C)[C@@H](O)[C@H](C)[C@@H](O)[C@@H](C)C[C@@H](C)C(=O)[C@H](C)[C@@H](O)[C@H]1C` [Compound 6dEB, 6-deoxyerythronolide B], the “activation of GFP expression under control of WT MphR” value (from here on “activation of GFP expression”) [1] was “failed to activate GFP expression”.
With `CC[C@H]1OC(=O)[C@H](C)[C@@H](O)[C@@H](C)C[C@@H](C)C(=O)/C=C/[C@H]1C` [Compound 10-DML, 10-deoxymethynolide] the activation ([2]; result in words, FIG. 4C) was “neither WT or D3 MphR is activated” and the “activation of GFP expression” value [1] was “neither WT or D3 MphR is activated”.
For `CC[C@H]1OC(=O)[C@H](C)[C@@H](O[C@H]2C[C@@](C)(OC)[C@@H](O)[C@H](C)O2)[C@H](C)[C@@H](O[C@@H]2O[C@H](C)C[C@H](N(C)C)[C@H]2O)[C@](C)(OC)C[C@@H](C)C(=O)/C(C)=C/[C@]1(C)O` [Solithromycin biosynthetic intermediate], the “detects the intermediate at concentrations as low as” value ([2]; FIG. 20) was 0.1 µM, the “times more sensitive vs. WT” value [2] was 52 times more and the EC50 ([1]; K1/2, FIG. 20) was 70.9 µM.
With `CC[C@H]1OC(=O)[C@H](C)[C@@H](O[C@@H]2O[C@H](C)C[C@H](N(C)C)[C@H]2O)[C@@H](C)C[C@@H](C)C(=O)/C=C/[C@H]1C` [YC-17] the EC50 [2] was 0.49 ± 0.05 µM, the “times more sensitive vs. WT” value [2] was 40 times more and the EC50 ([1]; K1/2, Table 12) was 19.6 ± 0.6 µM.
For `CC[C@H]1OC(=O)[C@H](C)[C@@H](O[C@H]2C[C@@](C)(OC)[C@@H](O)[C@H](C)O2)[C@H](C)[C@@H](O[C@@H]2O[C@H](C)C[C@H](N(C)C)[C@H]2O)[C@](C)(O)C[C@@H](C)CN(C)[C@H](C)[C@@H](O)[C@]1(C)O` [azithromycin], the activation [3] was “little to no activation”, the EC50 ([1]; K1/2, Table 6) was 0.6 ± 0.02 µM and the EC50 ([1]; K1/2, Table 7) was 0.6 µM.
`CC[C@H]1OC(=O)[C@H](C)[C@@H](O[C@H]2C[C@@](C)(OC)[C@@H](O)[C@H](C)O2)[C@H](C)[C@@H](O[C@@H]2O[C@H](C)C[C@H](N(C)C)[C@H]2O)[C@](C)(OC)C[C@@H](C)C(=O)[C@H](C)[C@@H](O)[C@]1(C)O` [clarithromycin, 6-O-methylerythromycin] showed an EC50 [4] of 12.7 µM, an EC50 (MphR variant R122T) of 24.2 µM and a Hill coefficient (MphR variant R122T) of 3.03.
In the case of `CC[C@H]1OC(=O)[C@H](C)[C@@H](O[C@H]2C[C@@](C)(OC)[C@@H](O)[C@H](C)O2)[C@H](C)[C@@H](O[C@@H]2O[C@H](C)C[C@H](N(C)C)[C@H]2O)[C@](C)(O)C[C@@H](C)C(=O)[C@H](C)[C@@H](O)[C@]1(C)O` [erythromycin A], the Cooperativity ([5]; Table 1) is reported as 2.92 ± 0.17, the “times more sensitive vs. WT” value ([5]; Table 11) is reported as 1.5 times more and the Cooperativity [6] is reported as 2.59 ± 0.04. The “times more sensitive vs. WT” value [7] was 2.0 times more, the “times more sensitive vs. WT” value [8] was 3.6 times more and the Cooperativity [9] was 1.80 ± 0.01. The Hillc [10] was 5.4 ± 1.2, the enhanced sensitivity [4] was 2 fold and the Cooperativity ([11]; Table 1) was 3.16 ± 0.13. The “times more sensitive vs. WT” value ([11]; Table 11) was 2.4 times more, the Hillc ([12]; Table 4) was 1.7 ± 0.1 and the “times more sensitive vs. WT” value ([12]; Table 11) was 9.9 times more. For the same compound, the “times more sensitive vs. WT” value [13] was 3.0 times more, the Cooperativity [14] was 2.84 ± 0.42 and the Cooperativity ([1]; Table 1, derived from the Hill function) was 4.44 ± 1.52. The Hillc ([1]; Table 4) was 3.6 ± 0.3, the Hill coefficient ([1]; Table 8) was 3.52 and the Cooperativity ([1]; Table 9) was 3.39. For the same compound, the “activation of GFP expression” value [1] was “good activator”, the Hill coefficient (MphR variant R122T) was 2.39 and the Hillc [15] was 3.9 ± 0.5.
In the case of `CC[C@H]1OC(=O)[C@H](C)[C@@H](O[C@H]2C[C@@](C)(OC)[C@@H](O)[C@H](C)O2)[C@H](C)[C@@H](O[C@@H]2O[C@H](C)C[C@H](N(C)C)[C@H]2O)[C@](C)(O)C[C@@H](C)C(=O)[C@H](C)[C@@H](O)[C@H]1C` [erythromycin B], the EC50 ([1]; K1/2, Table 9) is reported as 1.72 µM, the Cooperativity ([1]; Table 9) is reported as 1.99 and the “activation of GFP expression” value [1] is reported as “activate MphR-WT in a nearly identical manner”.
`CC[C@H]1OC(=O)[C@H](C)[C@@H](O[C@H]2C[C@@](C)(O)[C@@H](O)[C@H](C)O2)[C@H](C)[C@@H](O[C@@H]2O[C@H](C)C[C@H](N(C)C)[C@H]2O)[C@](C)(O)C[C@@H](C)C(=O)[C@H](C)[C@@H](O)[C@]1(C)O` [erythromycin C] was tested, and the “activation of GFP expression” value [1] was “activate MphR-WT in a nearly identical manner”.
`CC[C@H]1OC(=O)[C@H](C)C(=O)[C@H](C)[C@@H](O[C@@H]2O[C@H](C)C[C@H](N(C)C)[C@H]2O)[C@@H](C)C[C@@H](C)C(=O)/C=C/[C@H]1C` [narbomycin] gave a fold induction at 5 µM ([1]; read-out: Activation ratio (5 uM/0 uM)) of 4.
`CC[C@H]1OC(=O)[C@H](C)C(=O)[C@H](C)[C@@H](O[C@@H]2O[C@H](C)C[C@H](N(C)C)[C@H]2O)[C@@H](C)C[C@@H](C)C(=O)/C=C/[C@]1(C)O` [pikromycin] was tested, and the EC50 [2] was 0.81 ± 0.02 µM, the “times more sensitive vs. WT” value [2] was 118 times more and the EC50 [16] was 50 ± 20 µM. The EC50 [12] was 48 ± 5 µM, the “sensitivity improved, compared to the wild-type MphR” value [12] was 2 fold and the EC50 ([1]; K1/2, Table 5) was 97 ± 2 µM. The EC50 ([1]; K1/2, Table 14) was 96.6 ± 2.7 µM.
With `CC[C@H]1OC(=O)[C@H](C)[C@@H](O[C@H]2C[C@@](C)(OC)[C@@H](O)[C@H](C)O2)[C@H](C)[C@@H](O[C@@H]2O[C@H](C)C[C@H](N(C)C)[C@H]2O)[C@](C)(O)C[C@@H](C)/C(=N\OCOCCOC)[C@H](C)[C@@H](O)[C@]1(C)O` [roxithromycin] the activation [3] was “little to no activation”, the EC50 ([1]; K1/2, Table 6) was 67.2 ± 3.41 µM and the EC50 ([1]; K1/2, Table 7) was 74.1 µM.
